Measured values: patent publication US20230399327A1, “HIGH ACTIVITY HPK1 KINASE INHIBITOR” (ADLAI NORTYE BIOPHARMA CO., LTD., priority 2020, published 2023)

The compounds below were run against HPK1 kinase (Homo sapiens (Human), UniProt Q92918) (assay: HPK1 kinase activity inhibition (ADP-Glo Kinase Assay)). Conditions: HPK1, MBP substrate, ATP, 25° C. 60 min.
Type: biochemical
Description: Test Example 1: Detection of Compound's Ability to Inhibit HPK1 Kinase Activity (Method 1)
The specific operation is as follows: configure the enzymatic reaction system buffer (10 mM MOPS, pH 7.2, 5 mM β-glycerol-phosphate, 10 mM MgCl2, 0.8 mM EDTA, 2 mM EGTA, 0.1 mM DTT); the test compound (1 mM the compound stock solution in DMSO) was diluted with buffer to the highest concentration of 60 uM (containing 6% DMSO), and the compound with a concentration of 60 μM was initially diluted 5 times with a buffer containing 6% DMSO for a total of 8 points of gradient concentration; then dilute HPK1 kinase to 30 nM in buffer. Add 2 μl of HPK1 kinase diluent to each well of a Greiner 384-well microplate (Cat. No. 784075), and add 2 μl of buffer to the control well; add 1 μl of the diluted compound to the reaction well after brief centrifugation, and add 1 μl buffer solution containing 6% DMSO to the control well; after short centrifugation, place in a 25° C. constant temperature incubator (Shanghai Yiheng Scientific Instrument Co., Ltd., Cat. No.: LRH-150) and incubate for 20 minutes. Add 3 μl of reaction substrate (10 μM MBP and 20 μM ATP dissolved in distilled water) to each well, briefly centrifuge and incubate in a constant temperature incubator at 25° C. for 60 min, and use ADP-Glo Kinase Assay Kit to detect the enzymatic reaction activity, ADP-Glo Kinase Assay Kit detection is carried out according to the operating instructions of the kit. Data are described using the half maximal inhibitory concentration IC50 of the compound.

HPK1 kinase, sequence (Q92918 whole entry): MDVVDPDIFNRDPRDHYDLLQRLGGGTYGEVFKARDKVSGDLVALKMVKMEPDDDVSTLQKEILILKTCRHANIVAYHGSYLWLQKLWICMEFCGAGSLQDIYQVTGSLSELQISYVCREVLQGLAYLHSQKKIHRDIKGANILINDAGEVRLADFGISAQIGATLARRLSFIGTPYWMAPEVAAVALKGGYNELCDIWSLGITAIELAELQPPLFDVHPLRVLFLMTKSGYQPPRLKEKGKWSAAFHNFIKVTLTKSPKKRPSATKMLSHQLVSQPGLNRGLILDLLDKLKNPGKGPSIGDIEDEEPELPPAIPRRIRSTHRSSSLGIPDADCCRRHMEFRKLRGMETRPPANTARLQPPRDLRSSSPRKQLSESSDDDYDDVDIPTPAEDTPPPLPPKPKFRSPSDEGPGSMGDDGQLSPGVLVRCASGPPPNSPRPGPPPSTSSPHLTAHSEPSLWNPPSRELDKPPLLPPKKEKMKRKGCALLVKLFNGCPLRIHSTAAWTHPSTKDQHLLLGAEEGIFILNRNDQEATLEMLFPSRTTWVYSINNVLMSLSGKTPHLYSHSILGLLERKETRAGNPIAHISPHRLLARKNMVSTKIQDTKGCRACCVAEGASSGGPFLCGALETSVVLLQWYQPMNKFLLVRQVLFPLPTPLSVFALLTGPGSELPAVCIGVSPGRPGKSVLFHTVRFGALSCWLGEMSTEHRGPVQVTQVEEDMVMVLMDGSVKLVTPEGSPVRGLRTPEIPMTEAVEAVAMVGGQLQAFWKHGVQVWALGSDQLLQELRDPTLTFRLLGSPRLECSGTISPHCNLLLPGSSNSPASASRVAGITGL

Compound	IC50 [nM]
COc1ncccc1-c1cccc2cnc(Nc3cc4c(nc3C)CCN(C)C4)nc12 [Example 48, N-(2,6-dimethyl-5,6,7,8-tetrahydro-1,6-naphthyridin-3-yl)-8-(2-methoxypyridin-3-yl)quinazolin-2-amine]	1.93
COc1nc2c(cc1Nc1ncc3ccnc(N[C@@H](C)C(C)(C)C)c3n1)CN(C)CC2 [Example 42, (S)—N8-(3,3-dimethylbut-2-yl)-N2-(2-methoxy-6-methyl-5,6,7,8-tetrahydro-1,6-naphthyridin-3-yl)pyrido[3,4-d]pyrimidine-2,8-diamine]	< 0.1
COc1nc2c(cc1Nc1ncc3cccc(-c4ccn(C)n4)c3n1)CN(C)CC2 [Example 30, N-(2-methoxy-6-methyl-5,6,7,8-tetrahydro-1,6-naphthyridin-3-yl)-8-(1-methyl-1H-pyrazole-3-yl)quinazolin-2-amine]	0.27
COc1ccccc1-c1nccc2cnc(Nc3cc4c(nc3OC)CCN(C)C4)nc12 [Example 25, N-(2-methoxy-6-methyl-5,6,7,8-tetrahydro-1,6-naphthyridin-3-yl)-8-(2-methoxyphenyl)pyrido [3,4-d]pyrimidin-2-amine]	0.16
COC(=O)c1cccc(-c2cccc3cnc(Nc4cc5c(nc4OC)CCN(C)C5)nc23)c1 [Example 13, 3-(2-((2-methoxy-6-methyl-5,6,7,8-tetrahydro-1,6-naphthyridin-3-yl)amino)quinazolin-8-yl) methyl benzoate]	< 0.1
CCOc1nc2c(cc1Nc1ncc3cccc(-c4cnn(C)c4C)c3n1)CN(C)CC2 [Example 55, 8-(1,5-dimethyl-1H-pyrazol-4-yl)-N-(2-ethoxy-6-methyl-5,6,7,8-tetrahydro-1,6-naphthyridin-3-yl)quinazolin-2-amine]	0.66
CN1CCc2c(cc(Nc3ncc4ccnc(N5CC6CC6C5)c4n3)c(=O)n2C)C1 (stereo not drawn) [Example 86, 3-((8-(3-azabicyclo[3.1.0]hex-3-yl)pyrido[3,4-d]pyrimidin-2-yl)amino)-1,6-dimethyl-5,6,7,8-tetrahydro-1,6-naphthyridin-2(1H)-one]	56.3
COc1nc2c(cc1Nc1ncc3ccnc(-c4cc(C)nn4C)c3n1)CN(C)CC2 [Example 43, 8-(1,3-Dimethyl-1H-pyrazol-5-yl)-N-(2-methoxy-6-methyl-5,6,7,8-tetrahydro-1,6-naphthyridin-3-yl)pyrido[3,4-d]pyrimidin-2-amine]	4.67
COc1nc2c(cc1Nc1ncc3cccc(N4CCCC4=O)c3n1)CN(C)CC2 [Example 24, 1-(2-((2-methoxy-6-methyl-5,6,7,8-tetrahydro-1,6-naphthyridin-3-yl)amino)quinazolin-8-yl) pyrrolidin-2-one]	< 0.1
Cn1c2c(cc(Nc3ncc4ccnc(N5CCCCC5)c4n3)c1=O)CN(CCO)CC2 [Example 83, 6-(2-hydroxyethyl)-1-methyl-3-((8-(piperidin-1-yl)pyrido[3,4-d]pyrimidin-2-yl)amino)-5,6,7,8-tetrahydro-1,6-naphthyridin-2(1H)-one]	0.16
CCOc1nc2c(cc1Nc1ncc3cccc(-c4c(C)nn(C)c4C)c3n1)CN(C)CC2 [Example 67, N-(2-ethoxy-6-methyl-5,6,7,8-tetrahydro-1,6-naphthyridin-3-yl)-8-(1,3,5-trimethyl-1H-pyrazol-4-yl)quinazolin-2-amine]	23.3
COc1nc2c(cc1Nc1ncc3cccc(-c4cnn(C)c4)c3n1)CN(C)CC2 [Example 8, N-(2-methoxy-6-methyl-5,6,7,8-tetrahydro-1,6-naphthyridin-3-yl)-8-(1-methyl-1H-pyrazole-4-yl)quinazolin-2-amine]	1.84
COc1nc2c(cc1Nc1ncc3cccc(-c4cccnc4OC)c3n1)CN(C)CC2 [Example 23, N-(2-methoxy-6-methyl-5,6,7,8-tetrahydro-1,6-naphthyridin-3-yl)-8-(2-methoxypyridin-3-yl) quinazolin-2-amine]	< 0.1

The next lines start with the values.

IC50 [nM]	Compound
1.66	COc1nc2c(cc1Nc1ncc3cccc(NCC4CCOCC4)c3n1)CN(C)CC2 [Example 31, N2-(2-methoxy-6-methyl-5,6,7,8-tetrahydro-1,6-naphthyridin-3-yl)-N8-((tetrahydro-2H-pyran-4-yl)methyl)quinazoline-2,8-diamine]
< 0.1	CN1CCc2[nH]c(=O)c(Nc3ncc4ccnc(NCC(C)(C)C)c4n3)cc2C1 [Example 64, 6-methyl-3-((8-(neopentylamino)pyrido[3,4-d]pyrimidin-2-yl)amino)-5,6,7,8-tetrahydro-1,6-naphthyridin-2(1H)-one]
19.9	COCCn1c2c(cc(Nc3ncc4ccnc(N5CCC(F)(F)CC5)c4n3)c1=O)CN(C)CC2 [Example 87, 3-((8-(4,4-difluoropiperidin-1-yl)pyrido[3,4-d]pyrimidin-2-yl)amino)-1-(2-methoxyethyl)-6-methyl-5,6,7,8-tetrahydro-1,6-naphthyridin-2(1H)-one]
15.8	CN1CCc2[nH]c(=O)c(Nc3ncc4ccnc(N5CCC(F)(F)CC5)c4n3)cc2C1 [Example 74, 3-((8-(4,4-difluoropiperidin-1-yl)pyrido[3,4-d]pyrimidin-2-yl)amino)-6-methyl-5,6,7,8-tetrahydro-1,6-naphthyridin-2(1H)-one]
3.61	COc1nc2c(cc1Nc1ncc3cccc(N4Cc5ccccc5C4=O)c3n1)CN(C)CC2 [Example 32, 2-(2-((2-methoxy-6-methyl-5,6,7,8-tetrahydro-1,6-naphthyridin-3-yl)amino)quinazolin-8-yl) isoindolin-1-one]
< 0.1	Cc1c(-c2cccc3cnc(Nc4cc5c([nH]c4=O)CCN(C)C5)nc23)cnn1C [Example 61, 3-((8-(1,5-dimethyl-1H-pyrazol-4-yl)quinazolin-2-yl)amino)-6-methyl-5,6,7,8-tetrahydro-1,6-naphthyridin-2(1H)-one]
0.61	COc1nc2c(cc1Nc1ncc3ccnc(-c4cccnc4OC)c3n1)CN(C)CC2 [Example 34, N-(2-methoxy-6-methyl-5,6,7,8-tetrahydro-1,6-naphthyridin-3-yl)-8-(2-methoxypyridin-3-yl) pyrido[3,4-d]pyrimidin-2-amine]
5.16	COc1nc2c(cc1Nc1ncc3cccc(-c4ccccc4OCc4ccccc4)c3n1)CN(C)CC2 [Example 22, 8-(2-(benzyloxy)phenyl)-N-(2-methoxy-6-methyl-5,6,7,8-tetrahydro-1,6-naphthyridin-3-yl) quinazolin-2-amine]
0.61	CN1CCc2c(cc(Nc3ncc4ccnc(N5CCCCCC5)c4n3)c(=O)n2C)C1 [Example 80, 3-((8-(azepan-1-yl)pyrido[3,4-d]pyrimidin-2-yl)amino)-1,6-dimethyl-5,6,7,8-tetrahydro-1,6-naphthyridin-2(1H)-one]
< 0.1	COc1nc2c(cc1Nc1ncc3cccc(NCC(C)C)c3n1)CN(C)CC2 [Example 39, N8-isobutyl-N2-(2-methoxy-6-methyl-5,6,7,8-tetrahydro-1,6-naphthyridin-3-yl)quinazoline-2,8-diamine]
23.1	COc1ccccc1-c1nccc2cnc(Nc3cc4c([nH]c3=O)CCN(C)C4)nc12 [Example 62, 3-((8-(2-methoxyphenyl)pyrido[3,4-d]pyrimidin-2-yl)amino)-6-methyl-5,6,7,8-tetrahydro-1,6-naphthyridin-2(1H)-one]
1.16	COc1nc2c(cc1Nc1ncc3ccnc(N4CCOCC4)c3n1)CN(C)CC2 [Example 35, N-(2-methoxy-6-methyl-5,6,7,8-tetrahydro-1,6-naphthyridin-3-yl)-8-morpholinopyrido[3,4-d]pyrimidin-2-amine]
1.22	COc1nc2c(cc1Nc1ncc3cccc(C4=CCOCC4)c3n1)CN(C)CC2 [Example 7, 8-(3,6-dihydro-2H-pyran-4-yl)-N-(2-methoxy-6-methyl-5,6,7,8-tetrahydro-1,6-naphthalenepyridin-3-yl)quinazolin-2-amine]
37.8	CNC(=O)c1ccccc1-c1cccc2cnc(Nc3cc4c(nc3OC)CCN(C)C4)nc12 [Example 12, 2-(2-((2-methoxy-6-methyl-5,6,7,8-tetrahydro-1,6-naphthyridin-3-yl)amino)quinazolin-8-yl)-N-methylbenzamide]
9.85	COc1nc2c(cc1Nc1ncc3cccc(C4=CCN(C(=O)OC(C)(C)C)CC4)c3n1)CN(C)CC2 [Example 15, 4-(2-((2-methoxy-6-methyl-5,6,7,8-tetrahydro-1,6-naphthyridin-3-yl)amino)quinazolin-8-yl)-3,6-Dihydropyridine-1(2H)-carboxylic acid tert-butyl ester]
2.77	CCOc1nc2c(cc1Nc1ncc3cccc(-c4cccnc4OC)c3n1)CN(C)CC2 [Example 47, N-(2-ethoxy-6-methyl-5,6,7,8-tetrahydro-1,6-naphthyridin-3-yl)-8-(2-methoxypyridin-3-yl) quinazolin-2-amine]
0.41	COc1nc2c(cc1Nc1ncc3cccc(NCc4ccccc4)c3n1)CN(C)CC2 [Example 38, N8-Benzyl-N2-(2-methoxy-6-methyl-5,6,7,8-tetrahydro-1,6-naphthyridin-3-yl)quinazoline-2,8-diamine]
